According to US7402600B2, “Nitroderivatives of cardiovascular agents” (NicOx S.A., priority 1999, dated 2008):
Entries after “also recorded” stand apart in the source; their conditions may differ. Like-named read-outs stand apart in the source and are kept apart here.

Experiments:
[1] = Test 4: inhibition of radical production from DPPH; conditions: tested substance 100 μM in methanol, 30 minutes, absorbance 517 nm
Protocol: Test 4 is a colorimetric test which must not be satisfied by the precursor of B or B1 (precursor of the X2 or X2a of the formulas (I) and (II) respectively). The inhibition of the production of radicals from DPPH (2,2-diphenyl-1-picryl-hydrazyl) is described in M. S. Nenseter et Al., Atheroscler. Thromb. 15, 1338-1344, 1995. 100 μM solutions in methanol of the tested substances are prepared, and an aliquot of each of said solutions is added to a DPPH solution in methanol 0.1 M. After having stored the solutions at room temperature away from light for 30 minutes, their absorbances are read at the wave length of 517 nm, together with that of the corresponding DPPH solution at the same concentration. The absorbance decrease with respect to that of the solution of DPPH at the same concentration of the test solutions is determined. The effectiveness of the tested compound in inhibiting formation of radicals by DPPH is expressed by the following formula: (1−AS/AC)×100 wherein AS and AC are respectively the absorbance values of the solution containing the test compound together with DPPH and of the solution containing only DPPH. Test 4 is satisfied when the inhibition is equal or greater than 50%.
Test 4: Inhibition of the Radical Production from DPPH of Some Substances Used as Precursors of B or B1 (Ref. Formulas I and II of the Invention)
The method is based on a calorimetric test in which DPPH (2,2-diphenyl-1-picryl-hydrazyl) is used as the compound-forming radicals (M. S. Nenseter et Al., Atheroscler. Thromb. 15, 1338-1344, 1995).
Solutions in methanol of the tested substances at a final concentration 100 μM are initially prepared. 0.1 ml of each of these solutions are added to aliquots of 1 ml of a methanol solution 0.1 M of DPPH and then the final volume is brought to 1.5 ml. After having stored the solutions at room temperature away from light for 30 minutes, the absorbance at the wave length of 517 nm is read. It is determined the absorbance decrease with respect to the absorbance of a solution containing the same concentration of DPPH.
The efficacy of the test compound to inhibit the production of radicals, or antiradical activity, is expressed by the following formula: (1−AS/AC)×100 wherein AS and AC are, respectively, the absorbance values of the solution containing the test compound together+DPPH and of the solution containing only DPPH.

[2] = tested on: Human endothelial cells of the umbilical vein; assay: Test 2 (CIP): apoptosis (DNA fragmentation) induced by cumene hydroperoxide in endothelial cells; type: cell-based; conditions: for activity at 100 µM: Homo sapiens, Endothelial cell, 1 h, read-out: Apoptosis % with respect to the controls treated only with CIP; for inhibition of apoptosis induced by CIP (in words, t Student p<0.01): CIP 5 mM
Protocol: Test 2 (CIP): Protection parameter of endothelial cell against the oxidative stress induced by cumene hydroperoxide (CIP).
Human endothelial cells of the umbilical vein are prepared according to an usual standard procedure. Fresh umbilical veins are filled with a 0.1% by weight collagenase solution and incubated at 37° C. for 5 minutes.
The cells are collected from the perfusate by centrifugation and harvested in culture flasks T-75, pretreated with human fibronectin. The cells are then harvested in the same medium, further added with 10 ng/ml of bovine hypothalamic growth factor. When the cells of the primary cell culture (i.e. that directly obtained from ex-vivo) form a single layer of confluent cells (about 8,000,000 cells/flask), the culture is stopped and the layers washed and trypsinized. The cellular suspensions are transferred into the wells of a cell culture plate having 24 wells, half of which is then additioned with the same culture medium containing the drug at a 10^−4M concentration, and harvested in a thermostat at 37° C. at a constant moisture. Only the cells coming from said first sub-cultures are used for the experiments with cumene hydroperoxide (CIP).
Before starting the test, the cellular culture medium is removed and the cellular layers are carefully washed with a physiologic solution at a temperature of 37° C. The wells of the culture plate are then incubated for one hour with CIP at a 5 mM concentration in the culture medium. […] 5 replicates for each sample are carried out.
Human endothelial cells of the umbilical vein are prepared according to a standard method. Fresh umbilical veins are filled with a collagenase solution 0.1% by weight and incubated at 37° C. for 5 minutes.
The cells are collected from the perfusate by centrifugation at 800 rpm and harvested in culture flasks T-75, pretreated with human fibronectin. Cells are then harvested in the same medium, added with bovine hypothalamic growth factor (100 ng/ml). When the cells of the primary cell culture (the cells directly removed from ex-vivo umbilical vein) form a single layer of confluent cells (about 8,000,000 cells/flask), harvesting is stopped and the layers are washed and trypsinized. The cellular suspensions are transferred into wells of a culture plate having 24 wells, half of said wells being added with the same culture medium containing the drug at a 10^−4M concentration, and harvested in a thermostat at 37° C. at a constant moisture (90%), CO2=5%. When the drug is not soluble in the culture medium, it is formerly dissolved in a small amount of dimethylsulphoxide. The maximum amount of dimethylsulphoxide which can be added to the culture medium is 0.5%. Only the cells coming from these first subcultures are used for the tests with cumene hydroperoxide (CIP). The cells are identified as endothelial cells by morphological examination and by the specific immunological reaction towards factor VIII; these cultures did never show contaminations from myocytes or fibroblasts.
Before starting the test, the cellular culture medium is removed and the cellular layers are carefully washed with a standard physiologic solution buffered with phosphate 0.1 M pH 7.0, at the temperature of 37° C. The content of each well is then incubated for one hour with a CIP suspension in the culture medium at a 5 mM concentration. Evaluation of the cellular damage (apoptosis) is carried out by determining the percent variation of the DNA fragmentation in the cultures containing the drug+CIP with respect to the controls treated with CIP only. […] The fluorescence of each sample was determined on 5 replicates. Statistic evaluation has been made with t Student test (p<0.01).

[3] = tested on: gastric mucosa; assay: Example F6: gastric tolerability of invention compounds versus precursor drugs, with or without L-NAME; type: in vivo, rats
Description: Gastric Tolerability Test of the Compounds According to the Invention in the Confront of the Corresponding Precursor Drugs in Conditions of Endothelial Dysfunctions Induced by L-NAME (N^w-nitro-L-arginine-methyl ester).

[4] = tested on: gastrointestinal mucosa; assay: Test 1 (NEM): gastric tolerability of precursor drugs in rats treated or not with N-ethylmaleimide; conditions: rat, in vivo, 24 h
Protocol: The animals (rats) are distributed in the following groups (no. 10 animals for group):
• 1° group: treatment: only carrier (aqueous suspension 1% w/v of carboxymethylcellulose, dose: 5 ml/Kg when the drug is administered by os, or a physiologic solution when parenterally administered, i.e. by subcutaneous, intraperitoneal, intravenous or intramuscular route), • 2° group: treatment: carrier as above defined+NEM, B) Groups Treated with the Drug: • group I: treatment: carrier+drug, • group II: treatment: carrier+drug+NEM.
The administration routes are those known for the drug, and can be the oral or subcutaneous, intraperitoneal, intravenous or intramuscular route.
(§1) The animals are sacrificed after 24 hours and then one proceeds to the evaluation of the damage to the gastrointestinal mucosa.
Test 1—Experimental Model in Vivo with N-ethylmaleimide (NEM): Study of the Gastric Tolerability of Some Drugs Screened as Precursors of the Compounds of the Invention.
The animals (rats, weight about 200 g) are distributed in the following groups (No. 10 animals for group):
• 1° group: treatment: only carrier (aqueous suspension 1% w/v of carboxymethylcellulose, dose: 5 ml/Kg when the drug is administered by os, physiologic solution when by parenteral route), • 2° group: treatment: carrier+NEM B) Groups Administered with Each Drug: • group I: treatment: carrier+drug, • group II: treatment: carrier+drug+NEM.
The drug is administered one hour later, in suspension in the carrier. Animals are sacrificed after 24 hours and evaluation of the damage to the gastrointestinal mucosa is made by counting the number of rats, inside each group, with lesions to the stomach at a visual inspection. The total number of said rats is then divided by the total number of rats of the group and multiplied by 100.

[5] = tested on: gastrointestinal mucosa, GPT, blood pressure; conditions: rat, in vivo
Protocol: The endothelial dysfunction is evaluated by determining the damage to the gastrointestinal mucosa, the hepatic damage and blood hypertension induced by administration of L-NAME.
The animals (rats) are divided in groups as herein below shown. The group receiving L-NAME is treated for 4 weeks with said compound dissolved at a concentration of 400 mg/litre in drinking water. The following groups are constituted (No. 10 animals for group):
(§2) • 1° group: only carrier (aqueous suspension 1% w/v of carboxymethylcellulose, dose: 5 ml/Kg when the drug is administered by os, phisiologic solution when administered parenterally), • 2° group: carrier+L-NAME, B) Groups Administered with the Drug: • 3° group: carrier+drug, • 4° group: carrier+drug+L-NAME.
The administration routes are those known for the drug, and can be the oral or subcutaneous, intraperiteneal, intravenous or intramuscular route. […] The drug is administered once a day for 4 weeks.
At the end of the four weeks treatment access to water is prevented and after 24 hours the animals are sacrificed.
One hour before the sacrifice blood-pressure is determined, and a blood pressure increase is taken as an evaluation of the damage to vascular endothelium. […] The hepatic damage is determined by evaluation of the glutamic-pyruvic transaminase (GPT increase) after sacrifice.
Test 3-Experimental in Vivo Model with N^w-nitro-L-arginine-methyl ester (L-NAME): Gastric Tolerability (Gastrointestinal Damage Incidence), Hepatic (GPT Dosage, Glutamic-pyruvic Transaminase) and Cardiovascular (Blood Pressure) Tolerability of Some Drugs Screened as Precursors of the Compounds of the Invention.
The endothelial dysfunction is evaluated by determining the damage induced by L-NAME administration to the gastrointestinal mucosa, the hepatic damage (GPT increase), and the vascular endothelium or cardiovascular damage as blood hypertension.
The animals (rats, average weight 200 g) are divided in groups as herein below described. The group receiving L-NAME is treated for 4 weeks with said compound dissolved at the concentration of 400 mg/litre in drinking water. The following groups (No. 10 animals for group) are constituted:
as §2, with “group: treatment:” for “group:”, “physiologic” for “phisiologic”, “by parenteral route),” for “administered parenterally),”, “Treated” for “Administered”
Each drug is administered once a day for 4 weeks.
At the end of the four weeks access to water is prevented and after 24 hours the animals are sacrificed.
One hour before the sacrifice blood pressure is determined and a blood pressure increase is taken as an indication of a damage being occurred to vascular endothelium.
The hepatic damage is determined by evaluation after the sacrifice of the glutamic-pyruvic transaminase (GPT increase).
The % gastric lesions have been determined as in Test 1.

[6] = in vivo; conditions: rat, in vivo, po
Protocol: as §1

[7] = drug 10^-4 M, CIP 5 mM for one hour, DNA fragmentation
[8] = rats, dose and route as in the column beside (higher doses than in L-NAME animals)

## O=C1NC(C(=O)O)CS1 (stereo not shown) [2-oxo-4-thiazolidin carboxylic acid]
[1]
  % inhibition radical production from DPPH: 0%

## Nc1nc2c(ncn2COCCO)c(=O)[nH]1 [Aciclovir]
[2]; [7]
  activity at 100 µM: 95%
[2]; drug 10^-4 M
  inhibition of apoptosis induced by CIP (in words, t Student p<0.01): do not significantly inhibit apoptosis

## NCCCC(O)(P(=O)(O)O)P(=O)(O)O [Alendronate]
[3]; rat, in vivo, 4 weeks
  % gastropathy, animals not treated with L-NAME: 90%
  % gastropathy, animals treated with L-NAME: 70%
[4]
  Gastro-enteropathy (% incidence) without NEM: 0%
[2]; drug 10^-4 M
  inhibition of apoptosis induced by CIP (in words, t Student p<0.01): do not significantly inhibit apoptosis

## CC1(C)S[C@@H]2[C@H](NC(=O)[C@H](N)c3ccccc3)C(=O)N2[C@H]1C(=O)O [Ampicilline]
[2]; [7]
  activity at 100 µM: 94%
[2]; drug 10^-4 M
  inhibition of apoptosis induced by CIP (in words, t Student p<0.01): do not significantly inhibit apoptosis

## O=C(O)COCCN1CCN(C(c2ccccc2)c2ccc(Cl)cc2)CC1 (stereo not shown) [Cetirizine]
[2]; [7]
  activity at 100 µM: 115%
[2]; drug 10^-4 M
  inhibition of apoptosis induced by CIP (in words, t Student p<0.01): do not significantly inhibit apoptosis

## N[C@@H](CS)C(=O)O [Cisteine]
[1]
  % inhibition radical production from DPPH: 100%

## COC(=O)[C@H](c1ccccc1Cl)N1CCc2sccc2C1 [Clopidogrel]
[2]; [7]
  activity at 100 µM: 110%
[2]; drug 10^-4 M
  inhibition of apoptosis induced by CIP (in words, t Student p<0.01): do not significantly inhibit apoptosis

## O=C(O)Cc1ccccc1Nc1c(Cl)cccc1Cl [Diclofenac]
[3]; rat, in vivo, 4 weeks
  % gastropathy, animals not treated with L-NAME: 70%
  % gastropathy, animals treated with L-NAME: 100%

## Cn1c(=O)c2c(ncn2CC(O)CO)n(C)c1=O (stereo not shown) [Diphylline]
[2]; drug 10^-4 M
  inhibition of apoptosis induced by CIP (in words, t Student p<0.01): do not significantly inhibit apoptosis
[2]; [7]
  Apoptosis % with respect to the controls treated only with CIP: 95%

## COc1cccc2c1C(=O)c1c(O)c3c(c(O)c1C2=O)C[C@@](O)(C(=O)CO)C[C@@H]3O[C@H]1C[C@H](N)[C@H](O)[C@H](C)O1 [Doxorubicin]
[5]
  GPT % without L-NAME: 195%
[5]; 4 weeks
  Gastroenteropathy % without L-NAME: 30%

## CCOC(=O)[C@H](CCc1ccccc1)N[C@@H](C)C(=O)N1CCC[C@H]1C(=O)O [Enalapril]
[2]; [7]
  activity at 100 µM: 80%
[2]; drug 10^-4 M
  inhibition of apoptosis induced by CIP (in words, t Student p<0.01): do not significantly inhibit apoptosis

## O=C(Cc1ccccc1Nc1c(Cl)cccc1Cl)NC(Cc1c[nH]cn1)C(=O)OCCCCO[N+](=O)[O-] (stereo not shown) [Example 4, [2-[(2,6-dichlorophenyl)amino]-benzeneacetyloxy]-(L)-histidine 4-(nitroxy)butyl ester]
[3]; rats, L-NAME
  % gastropathy, animals treated with L-NAME: 0%
[3]; [8]
  % gastropathy, animals not treated with L-NAME: 0%

## O=C(CCC(=O)OCCCCO[N+](=O)[O-])Nc1c2c(nc3ccccc13)CCCC2 [Example 5]
[3]; rats, L-NAME
  % gastropathy, animals treated with L-NAME: 0%
[3]; [8]
  % gastropathy, animals not treated with L-NAME: 20%

## O=C(CCC(=O)OCCCCO[N+](=O)[O-])NCCCC(O)(P(=O)(O)O)P(=O)(O)O [Example 6, [4-amino-[4-oxo-(4-nitroxybutyloxy)butanoyl]-1-hyroxybutyliden] biphosphonic acid]
[3]; rats, L-NAME
  % gastropathy, animals treated with L-NAME: 10%
[3]; [8]
  % gastropathy, animals not treated with L-NAME: 20%

## Nc1c(Br)cc(Br)cc1CNC1CCC(OC(=O)CCC(=O)OCCCCO[N+](=O)[O-])CC1 (stereo not shown) [Example 7, [4-oxo-(4-nitroxybutyloxy)butanoyl4-(2-amino-3,5-dibromophenyl)-methylamino] cyclohexanol ester]
[3]; rats, L-NAME
  % gastropathy, animals treated with L-NAME: 0%
[3]; [8]
  % gastropathy, animals not treated with L-NAME: 10%

## COc1cc(/C=C/C(=O)O)ccc1O [Ferulic acid]
[1]
  % inhibition radical production from DPPH: 100%

## O=C(O)c1cc(O)ccc1O [Gentisic acid]
[1]
  % inhibition radical production from DPPH: 80%

## COc1ccc2c(c1)c(CC(=O)O)c(C)n2C(=O)c1ccc(Cl)cc1 [Indomethacin]
[6]
  MTD at 24 h: 7.5 mg/kg
[4]
  Gastro-enteropathy (% incidence) without NEM: 0%
[2]; drug 10^-4 M
  inhibition of apoptosis induced by CIP (in words, t Student p<0.01): not significantly different with respect to that of the controls
[2]; drug 10^-4 M, listed as indomethacin
  inhibition of apoptosis induced by CIP (in words, t Student p<0.01): do not significantly inhibit apoptosis

## Nc1ccc(O)c(C(=O)O)c1 [Mesalamine]
[4]
  Gastro-enteropathy (% incidence) without NEM: 0%
[2]; drug 10^-4 M
  inhibition of apoptosis induced by CIP (in words, t Student p<0.01): inhibit apoptosis; also recorded: inhibits the apoptosis induced by CIP

## CC(=O)N[C@@H](CS)C(=O)O [N-acetylcisteine]
[1]; listed as N-acetylcysteine
  % inhibition radical production from DPPH: 100%

## NC(=O)c1cccnc1 [Nicotinamide]
[2]; drug 10^-4 M
  inhibition of apoptosis induced by CIP (in words, t Student p<0.01): do not significantly inhibit apoptosis

## CC(=O)Nc1ccc(O)cc1 [Paracetamol]
[2]; drug 10^-4 M
  inhibition of apoptosis induced by CIP (in words, t Student p<0.01): do not significantly inhibit apoptosis; also recorded: not significantly different with respect to that of the controls

## CC(C)(C)NCC(O)c1ccc(O)c(CO)c1 (stereo not shown) [Salbutamol]
[2]; drug 10^-4 M
  inhibition of apoptosis induced by CIP (in words, t Student p<0.01): do not significantly inhibit apoptosis

## CCC(C)(C)C(=O)O[C@H]1C[C@@H](C)C=C2C=C[C@H](C)[C@H](CC[C@@H]3C[C@@H](O)CC(=O)O3)[C@H]21 [Simvastatine]
[2]
  activity at 100 µM: 72%
